Patent US20180360940A1, “LISTERIA-BASED IMMUNOTHERAPY AND METHODS OF USE THEREOF” (priority 2015, published 2018)
Where two headings read alike, the source gives them in different places.

Legend:
[1] = tested on: PSA-specific and SIINFEKL-specific immunity; assay: PSA- and […]-specific CD8 T cells after PSA-SVN Tag with early antibiotics; type: in vivo, C57BL/6 mice; conditions: PSA-SVN Tag IP, spleens day 7
Experimental: FIGS. 17A-D Results from early time point administration of ampicillin at 2 hours, 4 hours, and 6 hours post-Lm vaccine. % PSA specific CD8 T cells (FIG. 17A), % […] specific CD8 T cells (FIG. 17B), # of PSA specific CD8 cells (FIG. 17C), and # of […] specific CD8 cells (FIG. 17D).
FIGS. 18A-B Splenocytes from early gentamicin treatment at 2 hours, 4 hours, or 6 hours +ampicillin 24 hour chase of LM-PSA-SVN treated mice. % PSA specific CD8 T cells (FIG. 18A) and % […] specific CD8 T cells (FIG. 18B).
An assay was performed to examine the generation of […]-specific and PSA-specific immunity in mice treated with ampicillin or gentamicin/ampicillin and immunized with PSA-SVN Tag. The […]-specific immune response was detected by pentamer staining using the known T cell epitopes for C57BL/6 mice, H-2 Db PSA65-73 ([…]) and H-2 Kb OVA257-264 ([…]).
Prime-Harvest with Ampicillin: On Day 0, all groups were infected with PSA-SVN Tag LM IP, and then ampicillin was administered at 100 mg/kg IP at various time points from hour 2, 4, 6, 24. All Animals (except negative control) were given 1 dose of ampicillin at 24 hours. 7 days after Day 0 infection, mice were sacrificed and spleens were harvested and analyzed for specific T-cell epitopes to H-2 Db PSA65-73 ([…]) and H-2 Kb OVA257-264 ([…]). […]

[2] = tested on: TPSA23 tumor; assay: TPSA23 tumor regression study, ADXS31-142 with or without ampicillin; type: in vivo, C57BL/6 male mice; conditions: DP ADXS31-142 (PSA 1.0) IP, ampicillin 100 mg/kg IP at 4-hr, 6-hr, 24-hr
Experimental: FIG. 22A-B Results for ADXS31-142 therapy with our without early ampicillin treatment. TC1 tumor regression (FIG. 22A) and % survival (FIG. 22B).
A tumor regression study was initiated in C57BL/6 male mice using TPSA23 prostate cancer cells to assess the therapeutic efficacy of different Lm treatment with or without ampicillin treatment.
Tumor Inoculation: The tumor model used in this study is the TPSA23 tumor model. TPSA23 cells are cultured in complete medium. Complete medium for TPSA23 cells: 430 ml DMEM with Glucose, 45 ml FBS, 25 ml Nu-Serum IV, 5 ml L-Glutamine, 5 ml Na-bicarbonate, 0.005 mg/ml Bovine Insulin—Insulin stock (2.5 mg/ml) is prepared in acidified water (10 ml water+100 ul glacial acetic acid) (Add to the flask while splitting cells—6.4 uL/8 mLs media, 12.8 uL/16 mLs media, 19.2 uL/24 mLs media, etc.), and 10 nM Dehydroisoandrosterone (DHA)—DHA stock (10 mM) is prepared in ethanol. (Add to the flask while splitting cells—140 uL/70 mLs media, 70 uL/35 mLs media, 35 uL/17.5 mLs media, etc.). Two days prior to implanting tumor cells in mice, TPSA23 cells are sub-cultured in complete media. […] Cells were counted and re-suspended at a concentration of 2×10^6 cells/200 ul in PBS/mouse for injection. […] Tumors are measured twice a week until they reach a size of 12 mm in diameter. Once tumors met sacrifice criteria, mice were euthanized and tumors were excised and measured. […]

[3] = 10 mg/mL in sterile H2O, cited from earlier work
[4] = tested on: TC-1 tumor; assay: TC-1 tumor regression study, ADXS11-001 with or without ampicillin; type: in vivo, C57BL/6 female mice; conditions: DP ADXS11-001 (HPV 1.0) IP, ampicillin 100 mg/kg IP at 4-hr, 6-hr, 24-hr
Experimental: FIG. 20A-B Results for ADXS11-001 therapy with our without early ampicillin treatment. TC1 tumor regression (FIG. 20A) and % survival (FIG. 20B).
A tumor regression study was initiated in C57BL/6 female mice using TC-1 lung epithelial cells to assess the therapeutic efficacy of different Lm treatment with or without ampicillin treatment and whether it alters the tumor microenvironment.
Tumor Inoculation: The tumor model used in this study is the TC-1 tumor model. TC-1 cells are cultured in complete medium. Complete medium for TC-1 cells: 450 ml RPMI 1640, 50 ml 10%FBS, 5 ml NEAA (100 uM), 5 ml L-Glutamine ([…]), and 5 ml Pen/strep (100 U/mL) penicillin+100 ug/mL streptomycin) G418 (400 ug/mL) (added to cells when splitting). Two days prior to implanting tumor cells in mice, TC-1 cells were sub-cultured in complete media. On the day of the experiment (Day 0), cells were trypsinized and washed twice with media. Cells were counted and re-suspended at a concentration of 1×10^5 cells/200 ul in PBS/mouse for injection. Tumor cells were injected subcutaneously in the right flank of each mouse. Tumors were measured twice a week until they reached a size of 12 mm in diameter. Once tumors met sacrifice criteria, mice were euthanized and tumors were excised and measured.
Vaccine/Ampicillin Treatment: On Day 6, when tumors are ˜5mm in size; vaccines and treatments began. […]

Compound	PSA specific and SIINFEKL specific CD8 T cells, difference between groups ([1]; ampicillin 100 mg/kg IP at 2, 4, 6 hours plus 24 hours)	survival, difference between Lm treatment groups with or without ampicillin [2]	tumor regression, difference between Lm treatment groups with or without ampicillin [2]	solution stability [3] [days]	survival, difference between Lm treatment groups with or without ampicillin [4]	tumor regression, difference between Lm treatment groups with or without ampicillin [4]	PSA specific and SIINFEKL specific CD8 T cells, difference between groups ([1]; gentamicin 5 mg/kg IP at 2, 4, 6 hours plus ampicillin 24 hour chase)	solution stability ([3]; 2-8 C)	solution stability ([3]; at 37 C) [days]
CC1(C)S[C@@H]2[C@H](NC(=O)[C@H](N)c3ccccc3)C(=O)N2[C@H]1C(=O)O [ampicillin]	No significant difference	No significant difference	No significant difference	3	No significant difference	No significant difference			
gentamicin							No significant difference	months	5
